According to patent publication US4472579A, “Process for the preparation of quinoline carboxylic acid derivatives” (Kyorin Seiyaku Kabushiki Kaisha, priority 1980, dated 1984):
Values after ≈ are worked out from the molar mass of the structure shown. Where two headings read alike, the source gives them in different places.

Key:
Assay in all cases: Antibacterial activity, agar dilution streak MIC
Type in all cases: cell-based
Shigella sonnei IID969 = conditions: Shigella sonnei IID969, Gram -; read-out: Minimum inhibitory concentration
Protocol: The antibacterial activities of the compounds of this invention were assayed by the standard agar dilution streak method against Gram-positive and Gram-negative bacteria [Chemothrapy, 22, 1126 (1974)]. The result was shown in Table 1 together with a known agent, nalidixic acid.

[1] = system: Salmonella enteritidis IID604; conditions: Salmonella enterica, read-out: Minimum inhibitory concentration
Protocol: (§1) The antibacterial activities of the compounds of this invention were assayed by the standard agar dilution streak method against Gram-positive and Gram-negative bacteria [Chemothrapy, 22, 1126 (1974)].

S. aureus ATCC14775 = conditions: Staphylococcus aureus; S. aureus ATCC14775, Gram +; read-out: Minimum inhibitory concentration
Protocol: as §1

[2] = system: Streptococcus pyogenes IID692; conditions: Streptococcus pyogenes IID692, Gram +; read-out: Minimum inhibitory concentration
Protocol: as §1

[3] = system: Pseudo. aeruginosa IF012689; conditions: Pseudomonas aeruginosa; Pseudo. aeruginosa IF012689, Gram -; read-out: Minimum inhibitory concentration
Protocol: as §1

[4] = system: Klebsiella pneumoniae IF03512; conditions: Klebsiella pneumoniae IF03512, Gram -; read-out: Minimum inhibitory concentration
Protocol: as §1

[5] = system: Pseudomonas aeruginosa VI; conditions: Gram -, read-out: Minimum inhibitory concentration
Protocol: as §1

Bacillus subtilis PCI219 = conditions: Bacillus subtilis PCI219, Gram +; read-out: Minimum inhibitory concentration
Protocol: as §1

Proteus vulgaris IF03167 = conditions: Proteus vulgaris IF03167, Gram -; read-out: Minimum inhibitory concentration
Protocol: as §1

[6] = system: Diplococcus pneumoniae IID552; conditions: Streptococcus pneumoniae; Diplococcus pneumoniae IID552, Gram +; read-out: Minimum inhibitory concentration
Protocol: as §1

[7] = system: Staphyloccocus aureus 209P; conditions: read-out: Minimum inhibitory concentration
Protocol: as §1

[8] = system: Escherichia coli NIHJ JC-2; conditions: NIHJJC2, read-out: Minimum inhibitory concentration
Protocol: as §1

SMILES	MIC (Shigella sonnei IID969)	MIC [2]	MIC [3]	MIC [4]	MIC [6]	other results
CCn1cc(C(=O)O)c(=O)c2cc(F)c(N3CCNCC3)cc21 [Example 1, 1-ethyl-6-fluoro-7-(1-piperazinyl)-4-oxo-1,4-dihydroquinoline-3-carboxylicacid]	0.1 µg/mL (≈ 0.313 µM)	1.56 µg/mL (≈ 4.89 µM)	1.56 µg/mL (≈ 4.89 µM)	0.05 µg/mL (≈ 0.157 µM)	3.13 µg/mL (≈ 9.8 µM)	MIC ([1]; Salmonella enteritidis IID604, Gram -): 0.2 µg/mL (≈ 0.626 µM); MIC (S. aureus ATCC14775): 3.13 µg/mL (≈ 9.8 µM); MIC [5]: 0.39 µg/mL (≈ 1.22 µM); MIC (Bacillus subtilis PCI219): 0.39 µg/mL (≈ 1.22 µM); MIC (Proteus vulgaris IF03167): 0.1 µg/mL (≈ 0.313 µM); MIC ([7]; Staphyloccocus aureus 209P, Gram +): 0.78 µg/mL (≈ 2.44 µM); MIC [8]: 0.1 µg/mL (≈ 0.313 µM)
CCn1cc(C(=O)O)c(=O)c2cc(F)c(N3CCN(C)CC3)cc21 [Example 6, 1-ethyl-6-fluoro-7-(4-methyl-1-piperazinyl)-4-oxo-1,4-dihydroquinoline-3-carboxylic acid]	0.1 µg/mL (≈ 0.3 µM)	6.25 µg/mL (≈ 18.7 µM)	3.13 µg/mL (≈ 9.39 µM)	0.05 µg/mL (≈ 0.15 µM)	3.13 µg/mL (≈ 9.39 µM)	MIC [1]: 0.78 µg/mL (≈ 2.34 µM)
C=Cn1cc(C(=O)O)c(=O)c2cc(F)c(N3CCNCC3)cc21 [Example 8, 1-vinyl-6-fluoro-7-(1-piperazinyl)-4-oxo-1,4-dihydroquinoline-3-carboxylicacid]		12.5 µg/mL (≈ 39.4 µM)				
C=Cn1cc(C(=O)O)c(=O)c2cc(F)c(N3CCN(C)CC3)cc21 [Example 9, 1-vinyl-6-fluoro-7-(4-methyl-1-piperazinyl)-4-oxo-1,4-dihydroquinoline-3-carboxylic acid]		12.5 µg/mL (≈ 37.7 µM)				
CCn1cc(C(=O)O)c(=O)c2ccc(C)nc21 [NA, Nalidixic acid, reference compound]						MIC [7]: 50 µg/mL (≈ 215 µM)
